Experimental data: PMC10202811 (Nature Medicine, 2023)
Where “and” joins values, the source holds several entries; their conditions need not be identical. Equal values may be shown once.

Experiments:
[1] = system: ALK-driven refractory or relapsed neuroblastoma; test: Soft tissue response by RECIST; format: in vivo, human
Source text: Patients underwent disease staging at baseline, after courses 2 and 4 and then every four courses thereafter. The primary endpoint for response analysis is the BOR, defined as the best response observed before progression or start of another therapy. […] Response was graded according to the NANT response criteria version 2.0 (ref. [26]), modified from the International Neuroblastoma Response Criteria (INRC)[48]. NANT response criteria use three components for assessment of overall response: soft tissue response assessed by anatomical imaging and avidity on MIBG or FDG-PET; bone response assessed by uptake in bone by MIBG or bone involvement on FDG-PET; and bone marrow response assessed by morphology on bilateral aspirates and biopsies. Each response component (soft tissue, bone and bone marrow) are graded as CR, PR, SD and PD. Overall response grading is defined as: CR, if a response of CR in all components that are involved at baseline; PR, if a response of PR or better in all involved components; MR, if a response of PR or better but with at least one involved component as SD and no PD in all involved components; SD, if a response of SD in all involved components; and PD, if a response of PD in at least one involved component. The overall response definitions are identical to overall responses (CR, PR, SD and PD) as defined by the INRC. Response assessment is initially performed by sites and reviewed against source documents by NANT operations. Additional blinded central review of all radiological or pathological data was conducted for patients with overall PR or better and, in addition, radiologic pathological data of all involved sites for patients with MR to assign the final BOR on this study. Response by MIBG was determined using the Curie criteria. RR was determined as the proportion of patients with BOR of CR and PR in each cohort. […]

[2] = system: neuroblastoma-derived xenografts harboring F1174L, F1245C or R1275Q ALK mutations; conditions: cited from earlier work

SMILES: C[C@H]1Oc2cc(cnc2N)-c2c(nn(C)c2C#N)CN(C)C(=O)c2ccc(F)cc21 [Lorlatinib, (10R)-7-amino-12-fluoro-2,10,16-trimethyl-15-oxo-10,15,16,17-tetrahydro-2H-8,4-(metheno)pyrazolo[4,3-h][2,5,11]-benzoxadiazacyclotetradecine-3-carbonitrile]
- Soft tissue % change from baseline ([1]; Cohort A1, individual patient): 1% and -3.77% and -4% and -7% and -17% and -21% and -29% and -36% and -41% and -50% and -63% and -70% and -100% and 200% and 121% and 100% and 61% and 20% and 6%
- Soft tissue % change from baseline ([1]; Cohort A2, individual patient): 1% and -11% and -23% and -27% and -28% and -30% and -41% and -68%
- Soft tissue % change from baseline ([1]; Cohort B2, individual patient): 1% and -9% and -12% and -45%
- anti-tumor doses lower than crizotinib ([2]; ALK-driven neuroblastoma pre-clinical models in vivo): 10–30 fold
- effect on xenograft tumors ([2]; crizotinib-resistant and sensitive xenografts): complete tumor regression
